In ChEMBL document CHEMBL1833847, “Identification of potent c-Src inhibitors strongly affecting the proliferation of human neuroblastoma cells” (Bioorg Med Chem Lett, 2011):
≈ marks a conversion by molar mass, not a printed value. Calls of active or inactive are those of the source. The rule behind the calls is not given here.

Legend:
[1] = target: T1, Tyrosine-protein kinase ABL1 (Homo sapiens, UniProt P00519); test: Inhibition human recombinant Abl using Abtide peptide substrate at 100 uM in presence of [gamma-32P]-ATP
SH-SY5Y [2] = test: cells; details: Homo sapiens, 72 h
[3] = Aqueous solubility of the compound after 24 to 36 hrs by LC-MS-MS assay; type: physicochemical; details: buffer
[4] = Metabolic stability in human liver microsomes at 50 uM at pH 7.4 using NADPH by LC-UV-MS method; type: ADME, Microsome; details: read-out: Stability
[5] = Permeability of the compound at pH 7.4 after 5 hrs using porcine polar brain lipid by PAMPA-BBB assay; type: ADME; details: pig; for Papp at 5 h: PAMPA, pH 7.4, read-out: permeability
SH-SY5Y [6] = test: Antiproliferative activity against human SH-SY5Y cells assessed as cell viability at 0.01 to 10 uM by XTT assay; type: functional, cell-based; details: TDE = time-dependent effect
SH-SY5Y [7] = test: Antiproliferative activity against human SH-SY5Y cells assessed as cell viability after 72 hrs by XTT assay
HS27 = test: Antiproliferative activity against human HS27 cells assessed as retardation in proliferation rate at 10 uM after 72 hrs by XTT assay; type: cell-based; details: hs27, 72 h
[8] = target: Tyrosine-protein kinase HCK (Homo sapiens, UniProt P08631); test: Inhibition human recombinant HcK using KVEKIGEGTYGVVYK peptide substrate in presence of [gamma-32P]-ATP
[9] = target: Proto-oncogene tyrosine-protein kinase Src (Homo sapiens, UniProt P12931); test: Inhibition human recombinant cSRC using KVEKIGEGTYGVVYK peptide substrate in presence of [gamma-32P]-ATP
[10] = target: T2, Receptor-type tyrosine-protein kinase FLT3 (Homo sapiens, UniProt P36888)
T2 sequence (P36888 whole entry): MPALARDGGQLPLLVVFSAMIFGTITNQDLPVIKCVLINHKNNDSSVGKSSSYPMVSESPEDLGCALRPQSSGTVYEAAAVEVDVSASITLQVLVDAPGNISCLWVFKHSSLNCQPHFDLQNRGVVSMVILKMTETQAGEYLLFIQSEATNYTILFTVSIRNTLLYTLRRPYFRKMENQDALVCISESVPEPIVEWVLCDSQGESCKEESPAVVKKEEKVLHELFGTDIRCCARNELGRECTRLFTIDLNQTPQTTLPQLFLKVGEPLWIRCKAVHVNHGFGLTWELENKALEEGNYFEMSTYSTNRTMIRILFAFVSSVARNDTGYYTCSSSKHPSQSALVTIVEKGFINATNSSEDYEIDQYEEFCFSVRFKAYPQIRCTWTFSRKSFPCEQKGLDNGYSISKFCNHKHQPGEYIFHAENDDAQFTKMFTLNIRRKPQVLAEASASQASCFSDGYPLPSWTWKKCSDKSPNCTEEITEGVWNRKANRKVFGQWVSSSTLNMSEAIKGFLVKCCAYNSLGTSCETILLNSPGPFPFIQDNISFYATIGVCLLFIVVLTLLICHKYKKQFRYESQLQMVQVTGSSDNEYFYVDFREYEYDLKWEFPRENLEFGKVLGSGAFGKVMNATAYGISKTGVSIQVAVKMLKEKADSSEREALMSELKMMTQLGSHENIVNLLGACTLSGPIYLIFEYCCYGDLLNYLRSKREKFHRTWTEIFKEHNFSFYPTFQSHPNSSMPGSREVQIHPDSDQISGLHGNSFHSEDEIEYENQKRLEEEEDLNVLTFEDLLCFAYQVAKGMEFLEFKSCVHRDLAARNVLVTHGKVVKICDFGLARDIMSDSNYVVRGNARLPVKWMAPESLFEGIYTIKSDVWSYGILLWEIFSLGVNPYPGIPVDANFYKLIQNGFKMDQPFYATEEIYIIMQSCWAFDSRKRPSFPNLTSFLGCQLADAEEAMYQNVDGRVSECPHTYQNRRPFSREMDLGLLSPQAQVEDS
Description: Inhibition human recombinant FLT3 using Poly(Ala,Glu,Lys,Tyr)peptide substrate in presence of [gamma-32P]-ATP

Focal adhesion kinase 1 = Focal adhesion kinase 1 (Homo sapiens, UniProt Q05397)
Description: Inhibition human recombinant FAK using Poly(Glu,Tyr) substrate in presence of [gamma-32P]-ATP

[11] = target: Serine/threonine-protein kinase pim-1 (Homo sapiens, UniProt P11309); test: Inhibition human recombinant Pim1 using KKRNRLTLTV peptide substrate in presence of [gamma-32P]-ATP
SH-SY5Y [12] = test: Antiproliferative activity against human SH-SY5Y cells assessed as growth reduction at 10 uM after 72 hrs; type: functional; set-up: scale not given: the % may be the effect or the level left
[13] = target: T1, Tyrosine-protein kinase ABL1
Description: Inhibition human recombinant Abl using Abtide peptide substrate in presence of [gamma-32P]-ATP

Structure (SMILES): Clc1cccc(Nc2ncnc3c2cnn3CCc2ccccc2)c1
- inhibition [1]: inactive

Structure (SMILES): CC(Cn1ncc2c(NCc3ccccc3)ncnc21)c1ccccc1 (centres undefined)
- inhibition [1]: inactive

Structure (SMILES): CSc1nc(Nc2cccc(Br)c2)c2cnn(CC(C)c3ccccc3)c2n1 (centres undefined)
- IC50 (SH-SY5Y [2]): 800 nM
- solubility [3]: < 0.01 µg/mL
- remaining at 50 µM [4]: 95%
- permeability ([5]; pampa, pH 7.4, 5 h): 1.48 ×10⁻⁶ cm/s
- Activity (SH-SY5Y [6]): tde
- Activity (SH-SY5Y [7]): Dose-dependent effect
- Activity (HS27): Toxic

Structure (SMILES): CC(Cn1ncc2c(Nc3cccc(Cl)c3)ncnc21)c1ccccc1 (centres undefined)
- inhibition [1]: inactive

Structure (SMILES): CSc1nc(Nc2cccc(Cl)c2)c2cnn(CC(C)c3ccccc3)c2n1 (centres undefined)
- Ki [8]: 5 µM
- IC50 (SH-SY5Y [2]): 330 nM
- Activity (SH-SY5Y [6]): tde
- Ki [9]: 25 nM
- Ki [10]: Not Active
- Activity (SH-SY5Y [7]): Dose-dependent effect
- Ki (Focal adhesion kinase 1): Not Active
- inhibition [1]: inactive
- Activity (HS27): Toxic
- Ki [11]: 6.6 µM

Structure (SMILES): CSc1nc(Nc2cccc(Cl)c2)c2cnn(CC(Cl)c3ccccc3)c2n1 (centres undefined)
- solubility [3]: 0.046 µg/mL (≈ 0.107 µM)
- remaining at 50 µM [4]: 91%
- Papp at 5 h [5]: 5.66 ×10⁻⁶ cm/s
- Ki [9]: 700 nM
- Activity (SH-SY5Y [12]): 75%

Structure (SMILES): CC(Cn1ncc2c(NCc3ccccc3F)ncnc21)c1ccccc1 (centres undefined)
- inhibition [1]: inactive

Structure (SMILES): CC(Cn1ncc2c(NCc3ccc(F)cc3)ncnc21)c1ccccc1 (centres undefined)
- inhibition [1]: inactive

Structure (SMILES): CC(Cn1ncc2c(NCc3cccc(F)c3)ncnc21)c1ccccc1 (centres undefined)
- inhibition [1]: inactive

Structure (SMILES): CSc1nc(Nc2cccc(Cl)c2)c2cnn(CCc3ccccc3)c2n1
- Ki [8]: 1.72 µM
- remaining at 50 µM [4]: 99%
- Papp at 5 h [5]: 3.43 ×10⁻⁶ cm/s
- Activity (SH-SY5Y [6]): tde
- Ki [9]: 90 nM
- inhibition [1]: inactive
- Activity (HS27): Toxic
- Ki [11]: 6.5 µM

Structure (SMILES): CSc1nc(Nc2ccccc2)c2cnn(CC(C)c3ccccc3)c2n1 (centres undefined)
- Ki [8]: 3.87 µM
- IC50 (SH-SY5Y [2]): 730 nM
- Activity (SH-SY5Y [6]): tde
- Ki [9]: 25 nM
- Ki [10]: Not Active
- Ki (Focal adhesion kinase 1): Not Active
- inhibition [1]: inactive
- Activity (HS27): Toxic
- Ki [11]: 11.5 µM

Structure (SMILES): CSc1nc(NCc2ccccc2)c2cnn(CC(C)c3ccccc3)c2n1 (centres undefined)
- inhibition [1]: inactive

Structure (SMILES): ClC(Cn1ncc2c(NCc3ccccc3)ncnc21)c1ccccc1 (centres undefined)
- Ki [13]: 370 nM
- Ki [9]: 3000 nM

Structure (SMILES): CC(C)(C)n1nc(-c2ccc(Cl)cc2)c2c(N)ncnc21
- IC50 (SH-SY5Y [2]): 6100 nM
